Results on three compounds are retold here after patent US11185616B2, “Implantable medical products, a process for the preparation thereof, and use thereof” (priority 2016, dated 2021).

Test [1] deals with thromboxane A2 in platelets. The settings on record: Köfeler et al. 2000; cited from earlier work.
The test system of another test is S. aureus ATCC. Put plainly: rifampicin resistance development, passaging experiment. Format: cell-based. The settings on record: parallel culture with rifampicin-MHC doping. Here is the method: (§1) 10 ml tubes with Müller-Hinton broth (MHB) was brought to a concentration of about 10^6 CPU with 0.01 ml of an overnight culture with S. epidermidis RP62A and S. aureus ATCC, and provided with the respective MHC of rifampicin and miconazole. An aliquot was taken from the overnight cultures, brought into new MHB tubes (about 10^6 CPU), and again incubated over night. This was repeated up to 50 times, and the resistant isolates were frozen.

The subject of the next test is S. epidermidis RP62A. The test is described as above. Format: cell-based. The settings on record: parallel culture with rifampicin-MHC doping. The method, then:
as §1

`Clc1ccccc1C(c1ccccc1)(c1ccccc1)n1ccnc1` [clotrimazole]: in test [1], the “inhibition of synthesis of thromboxane A2 in platelets” value is listed as “selectively inhibit”.
In the case of `CO[C@H]1/C=C/O[C@@]2(C)Oc3c(C)c(O)c4c(O)c(c(/C=N/N5CCN(C)CC5)c(O)c4c3C2=O)NC(=O)/C(C)=C\C=C\[C@H](C)[C@H](O)[C@@H](C)[C@@H](O)[C@@H](C)[C@H](OC(C)=O)[C@@H]1C` [rifampicin], the resistance frequencies in the test with S. aureus ATCC and in the test with S. epidermidis RP62A was 10^−6 in each case.
In the case of `Clc1ccc(COC(Cn2ccnc2)c2ccc(Cl)cc2Cl)c(Cl)c1` (stereo not shown) [Miconazole, miconazole], in test [1], the “inhibition of synthesis of thromboxane A2 in platelets” value is on record as “selectively inhibit”.
